Results reported in PMC11707430, “Novel antibiotics against Staphylococcus aureus without detectable resistance by targeting proton motive force and FtsH” (MedComm, 2025).

Experiments:
[1] = test system: RAW264.7; assay: Inflammatory factors inhibition; format: cell-based; settings: LPS-treated RAW264.7, 16 μg/mL, 12 h
Description: Inflammatory factors inhibition by compounds. Cell line of RAW264.7 was cultured in DMEM medium with 10% FBS. After incubation at 37 ℃ 5% CO2 to log phase, the attached cells were washed with 1× PBS and added with 1 μg/mL of LPS. After incubation at 37 ℃ 5% CO2 for 30 min, 16 μg/mL of C218-0546 or STK848198 was added to each well. The cells were further cultured for 12h, and the cell precipitate was collected for qRT-PCR while the supernatant was collected for ELISA.
For gene expression determination. One milliliter of Trizol was added to lysis the cells. Then, the suspension was incubated with 200 μL chloroform for 3 min. After centrifugation at 12000 rpm 4℃ for 15 min, the aqueous phase was removed to RNase-free tubes, and added with equal volume of isopropanol. After centrifugation at 12000 rpm 4℃, the RNA precipitation was collected and wash with 75% ethanol. […] Absorbance at 260nm and 280 nm was detected to determine the RNA concentration and purity. cDNA was synthesized with HiFiScript cDNA Synthesis Kit (CoWin Biosciences, Beijing, China) according to the manufacture’s specification, and UltraSYBR Mixture (2×, CoWin Biosciences, Beijing, China) was used for qPCR determination.
ELISA kit (Proteintech, Wuhan, China) was used for cytokines production quantification. […] Then, 100 μL substrate was added to each well and the absorbance at 450 nm was determined.

[2] = test system: Salmonella typhimurium (TA97a, TA98, TA100, and TA1535) and E. coli WP2 uvrA (pKM101); assay: Ames test (overall); format: cell-based
Description: (§1) Ames test. Genotoxicity of the compounds was determined by Ames Kit (IPHASE, Beijing, China) containing Salmonella typhimurium (TA97a, TA98, TA100, and TA1535) and E. coli WP2 uvrA (pKM101). Diclofenac and 2-aminofluorene were used as positive controls for TA97a and TA98. Methyl methanesulfonate and 2-aminofluorene were used as positive controls for TA100. Methyl methanesulfonate and 2-aminoanthracene were used as positive controls for WP2 uvrA (pKM101). NaN3 and 2-aminoanthracene were used as positive controls for TA1535. The bottom and top layer culture medium, and S9 mixed solution were prepared according to the manufacturer’s instructions. After incubation at 37℃ for 48h, the colonies were counted.

[3] = test system: TA 1535; assay: Ames test; format: cell-based, Salmonella typhimurium
Description: as §1

[4] = test system: TA 97a; assay: Ames test; format: cell-based, Salmonella typhimurium
Description: as §1

[5] = test system: TA 100; assay: Ames test; format: cell-based, Salmonella typhimurium
Description: as §1

[6] = test system: TA 98; assay: Ames test; format: cell-based, Salmonella typhimurium
Description: as §1

[7] = test system: S. aureus ATCC 43300; assay: Concentration-dependent growth inhibition; format: cell-based
Description: Concentration-dependent growth inhibition. S. aureus was cultured in TSB to log phase, and diluted with MH broth to ~2×10^6 CFU/mL. One hundred microliters of the bacterial suspension with an equal volume of 2-fold diluted compounds were added in a 96-well cell culture plate. After incubation at 37 ℃ for 16h, the bacterial growth was quantified by measuring the OD value at 630nm (OD630nm).

Cc1nc2c(-c3ccc(Cl)cc3)cnn2c(O)c1Cc1ccccc1 [STK848198]
inflammatory cytokines production (IL-1β, IL-6, TNFα decreased, IL-10 enhanced) [1]: inhibit inflammatory progress | genotoxicity [2]: no genotoxicity | CFU(x±SD) ([3]; TA 1535, +S9, 25 μg/well): 2±1 CFU | Fold Change ([3]; TA 1535, +S9, 25 μg/well): 0.9 | CFU(x±SD) ([3]; TA 1535, +S9, 50 μg/well): 2±1 CFU | Fold Change ([3]; TA 1535, +S9, 50 μg/well): 0.9 | CFU(x±SD) ([3]; TA 1535, +S9, 100 μg/well): 2±1 CFU | Fold Change ([3]; TA 1535, +S9, 100 μg/well): 1 | CFU(x±SD) ([3]; TA 1535, +S9, 200 μg/well): 2±1 CFU | Fold Change ([3]; TA 1535, +S9, 200 μg/well): 0.7 | CFU(x±SD) ([3]; TA 1535, +S9, 400 μg/well): 2±1 CFU | Fold Change ([3]; TA 1535, +S9, 400 μg/well): 0.7 | CFU(x±SD) ([3]; TA 1535, -S9, 25 μg/well): 2±1 CFU | Fold Change ([3]; TA 1535, -S9, 25 μg/well): 0.9 | CFU(x±SD) ([3]; TA 1535, -S9, 50 μg/well): 2±2 CFU | Fold Change ([3]; TA 1535, -S9, 50 μg/well): 1 | CFU(x±SD) ([3]; TA 1535, -S9, 100 μg/well): 2±2 CFU | Fold Change ([3]; TA 1535, -S9, 100 μg/well): 1 | CFU(x±SD) ([3]; TA 1535, -S9, 200 μg/well): 1±1 CFU | Fold Change ([3]; TA 1535, -S9, 200 μg/well): 0.6 | CFU(x±SD) ([3]; TA 1535, -S9, 400 μg/well): 1±1 CFU | Fold Change ([3]; TA 1535, -S9, 400 μg/well): 0.6 | CFU(x±SD) ([4]; +S9, 25 μg/well): 6±5 CFU | Fold Change ([4]; +S9, 25 μg/well): 0.3 | CFU(x±SD) ([4]; +S9, 50 μg/well): 6±2 CFU | Fold Change ([4]; +S9, 50 μg/well): 0.2 | CFU(x±SD) ([4]; +S9, 100 μg/well): 4±4 CFU | Fold Change ([4]; +S9, 100 μg/well): 0.2 | CFU(x±SD) ([4]; +S9, 200 μg/well): 4±1 CFU | Fold Change ([4]; +S9, 200 μg/well): 0.2 | CFU(x±SD) ([4]; +S9, 400 μg/well): 5±2 CFU | Fold Change ([4]; +S9, 400 μg/well): 0.2 | CFU(x±SD) ([4]; -S9, 25 μg/well): 14±2 CFU | Fold Change ([4]; -S9, 25 μg/well): 0.6 | CFU(x±SD) ([4]; -S9, 50 μg/well): 11±1 CFU | Fold Change ([4]; -S9, 50 μg/well): 0.4 | CFU(x±SD) ([4]; -S9, 100 μg/well): 8±2 CFU | Fold Change ([4]; -S9, 100 μg/well): 0.3 | CFU(x±SD) ([4]; -S9, 200 μg/well): 10±4 CFU | Fold Change ([4]; -S9, 200 μg/well): 0.4 | CFU(x±SD) ([4]; -S9, 400 μg/well): 4±3 CFU | Fold Change ([4]; -S9, 400 μg/well): 0.2 | CFU(x±SD) ([5]; TA 100, +S9, 25 μg/well): 8 ±2 CFU | Fold Change ([5]; TA 100, +S9, 25 μg/well): 0.2 | CFU(x±SD) ([5]; TA 100, +S9, 50 μg/well): 7 ±1 CFU | Fold Change ([5]; TA 100, +S9, 50 μg/well): 0.2 | CFU(x±SD) ([5]; TA 100, +S9, 100 μg/well): 9 ±3 CFU | Fold Change ([5]; TA 100, +S9, 100 μg/well): 0.3 | CFU(x±SD) ([5]; TA 100, +S9, 200 μg/well): 8±3 CFU | Fold Change ([5]; TA 100, +S9, 200 μg/well): 0.2 | CFU(x±SD) ([5]; TA 100, +S9, 400 μg/well): 8 ±2 CFU | Fold Change ([5]; TA 100, +S9, 400 μg/well): 0.2 | CFU(x±SD) ([5]; TA 100, -S9, 25 μg/well): 5±2 CFU | Fold Change ([5]; TA 100, -S9, 25 μg/well): 0.2 | CFU(x±SD) ([5]; TA 100, -S9, 50 μg/well): 6±2 CFU | Fold Change ([5]; TA 100, -S9, 50 μg/well): 0.2 | CFU(x±SD) ([5]; TA 100, -S9, 100 μg/well): 5±2 CFU | Fold Change ([5]; TA 100, -S9, 100 μg/well): 0.1 | CFU(x±SD) ([5]; TA 100, -S9, 200 μg/well): 9±3 CFU | Fold Change ([5]; TA 100, -S9, 200 μg/well): 0.3 | CFU(x±SD) ([5]; TA 100, -S9, 400 μg/well): 4±2 CFU | Fold Change ([5]; TA 100, -S9, 400 μg/well): 0.1 | CFU(x±SD) ([6]; TA 98, +S9, 25 μg/well): 6 ±1 CFU | Fold Change ([6]; TA 98, +S9, 25 μg/well): 0.9 | CFU(x±SD) ([6]; TA 98, +S9, 50 μg/well): 5 ±1 CFU | Fold Change ([6]; TA 98, +S9, 50 μg/well): 0.8 | CFU(x±SD) ([6]; TA 98, +S9, 100 μg/well): 4 ±1 CFU | Fold Change ([6]; TA 98, +S9, 100 μg/well): 0.7 | CFU(x±SD) ([6]; TA 98, +S9, 200 μg/well): 5 ±1 CFU | Fold Change ([6]; TA 98, +S9, 200 μg/well): 0.7 | CFU(x±SD) ([6]; TA 98, +S9, 400 μg/well): 4 ±0 CFU | Fold Change ([6]; TA 98, +S9, 400 μg/well): 0.6 | CFU(x±SD) ([6]; TA 98, -S9, 25 μg/well): 5±3 CFU | Fold Change ([6]; TA 98, -S9, 25 μg/well): 0.8 | CFU(x±SD) ([6]; TA 98, -S9, 50 μg/well): 5±1 CFU | Fold Change ([6]; TA 98, -S9, 50 μg/well): 0.8 | CFU(x±SD) ([6]; TA 98, -S9, 100 μg/well): 3±2 CFU | Fold Change ([6]; TA 98, -S9, 100 μg/well): 0.5 | CFU(x±SD) ([6]; TA 98, -S9, 200 μg/well): 1±2 CFU | Fold Change ([6]; TA 98, -S9, 200 μg/well): 0.2 | CFU(x±SD) ([6]; TA 98, -S9, 400 μg/well): 0±1 CFU | Fold Change ([6]; TA 98, -S9, 400 μg/well): 0.1 | concentration at which growth inhibition was observed [7]: 0.25 ×MIC
